Measurements published in PubChem BioAssay AID248 (DTP/NCI, 2004).
Several values for one entry are separate records, joined by “and”; a condition that tells them apart may be missing. Equal values may be shown once. Inconclusive results and toxic doses are left out. Cut-off read from the data, not from the text of the source: active = T/C of 150% or more; inactive = T/C below 125%.

System: L1210 leukemia ip in BDF1 mice, survival T/C
Experiment: NCI In Vivo Anticancer Drug Screen. Data for tumor model L1210 Leukemia (intraperitoneal) in B6D2F1 (BDF1) mice
Details: endpoint: mean survival time, higher = longer survival
Method in brief: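 Ratio derived from survival: compound-dosed mice over vehicle-dosed mice, all bearing a transplantable tumor.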

[1] = dose: 100.0 mg/kg/injection, schedule: Q01DX Z (ip), vehicle: saline
[2] = dose: 200.0 mg/kg/injection, schedule: Q01DX Z (ip), vehicle: saline
[3] = dose: 100.0 mg/kg/injection, schedule: Q01DX009 (ip), vehicle: Klucel (hydroxypropylcellulose) (HPC)
[4] = dose: 100.0 mg/kg/injection, schedule: Q04DX003 (ip), vehicle: Klucel (hydroxypropylcellulose) (HPC)
[5] = dose: 200.0 mg/kg/injection, schedule: Q01DX009 (ip), vehicle: Klucel (hydroxypropylcellulose) (HPC)
[6] = dose: 200.0 mg/kg/injection, schedule: Q04DX003 (ip), vehicle: Klucel (hydroxypropylcellulose) (HPC)
[7] = dose: 100.0 mg/kg/injection, schedule: Q01DX001 (ip), vehicle: saline
[8] = dose: 200.0 mg/kg/injection, schedule: Q01DX001 (ip), vehicle: saline
[9] = dose: 400.0 mg/kg/injection, schedule: Q01DX001 (ip), vehicle: saline
[10] = dose: 100.0 mg/kg/injection, schedule: Q04DX003 (ip), vehicle: saline
[11] = dose: 50.0 mg/kg/injection, schedule: Q01DX001 (ip), vehicle: carboxymethylcellulose (CMC)
[12] = dose: 400.0 mg/kg/injection, schedule: Q01DX001 (ip), vehicle: carboxymethylcellulose (CMC)
[13] = dose: 100.0 mg/kg/injection, schedule: Q01DX001 (ip), vehicle: carboxymethylcellulose (CMC)

Measured: T/C

O=NN(CC(=O)O)Cc1ccc(Cl)cc1
inactive: [1] 102 % of control | [2] 102 % of control

c1ccc2c(C3OCC4(CCC4)CO3)cccc2c1
inactive: [3] 91 % of control | [4] 91 % of control | [5] 96 % of control | [6] 100 % of control | dose: 400.0 mg/kg/injection, schedule: Q01DX009 (ip), vehicle: Klucel (hydroxypropylcellulose) (HPC) 97 % of control | dose: 400.0 mg/kg/injection, schedule: Q04DX003 (ip), vehicle: Klucel (hydroxypropylcellulose) (HPC) 94 % of control

OCCCCc1ccccc1
inactive: dose: 100.0 mg/kg/injection, schedule: Q01DX001 (ip), vehicle: saline sonified 95 % of control | dose: 100.0 mg/kg/injection, schedule: Q01DX009 (ip), vehicle: saline sonified 104 % of control | dose: 200.0 mg/kg/injection, schedule: Q01DX001 (ip), vehicle: saline sonified 101 % of control | dose: 200.0 mg/kg/injection, schedule: Q01DX009 (ip), vehicle: saline sonified 97 % of control | dose: 400.0 mg/kg/injection, schedule: Q01DX001 (ip), vehicle: saline sonified 111 % of control

COc1ccc(C2=NNc3n[nH]c(=S)n3N2)cc1OC
inactive: dose: 50.0 mg/kg/injection, schedule: Q01DX009 (ip), vehicle: Klucel (hydroxypropylcellulose) (HPC) 96 % of control | [3] 96 % of control | [5] 112 % of control

O=c1oc2ccccc2c2c1C(c1ccc3c(c1)OCO3)C=C(c1ccc3c(c1)OCO3)O2 (stereo not given)
inactive: dose: 25.0 mg/kg/injection, schedule: Q01DX009 (ip), vehicle: water 101 % of control | dose: 50.0 mg/kg/injection, schedule: Q01DX009 (ip), vehicle: water 100 % of control | dose: 100.0 mg/kg/injection, schedule: Q01DX009 (ip), vehicle: water 97 % of control | dose: 200.0 mg/kg/injection, schedule: Q01DX009 (ip), vehicle: water 95 % of control | dose: 400.0 mg/kg/injection, schedule: Q01DX009 (ip), vehicle: water 102 % of control

O=C(O)C1(NC2CCCCC2)CCCCC1
inactive: dose: 5.0 mg/kg/injection, schedule: Q01DX Z (ip), vehicle: methylcellulose (MC) 104 % of control | dose: 10.0 mg/kg/injection, schedule: Q01DX Z (ip), vehicle: methylcellulose (MC) 114 % of control | dose: 20.0 mg/kg/injection, schedule: Q01DX Z (ip), vehicle: methylcellulose (MC) 99 % of control | dose: 40.0 mg/kg/injection, schedule: Q01DX Z (ip), vehicle: methylcellulose (MC) 100 % of control | dose: 80.0 mg/kg/injection, schedule: Q01DX Z (ip), vehicle: methylcellulose (MC) 99 % of control

CCC(C(=O)O)C(C)(C)O (stereo not given)
inactive: [7] 93 % of control | [8] 93 % of control | [9] 103 % of control

Cc1ccccc1-n1nnc2ccccc2c1=O
inactive: [7] 95 % of control | [10] 95 % of control | [8] 92 % of control | dose: 200.0 mg/kg/injection, schedule: Q04DX003 (ip), vehicle: saline 115 % of control | [9] 89 % of control | dose: 400.0 mg/kg/injection, schedule: Q04DX003 (ip), vehicle: saline 88 % of control

C=C(C(=C)C(=O)O)C(=O)O
inactive: [7] 101 % of control | dose: 100.0 mg/kg/injection, schedule: Q01DX009 (ip), vehicle: saline 98 % of control | [8] 101 % of control | dose: 200.0 mg/kg/injection, schedule: Q01DX009 (ip), vehicle: saline 107 % of control | [9] 98 % of control | dose: 400.0 mg/kg/injection, schedule: Q01DX009 (ip), vehicle: saline 102 % of control

COc1ccc2nc(C)oc2c1
inactive: dose: 100.0 mg/kg/injection, schedule: Q04DX003 (ip), vehicle: acetone 97 % of control | dose: 200.0 mg/kg/injection, schedule: Q04DX003 (ip), vehicle: acetone 95 % of control | dose: 400.0 mg/kg/injection, schedule: Q04DX003 (ip), vehicle: acetone 97 % of control

CC1(C)CC(=NNC2=NC=NC3=NC=NC32)CC(C)(C)N1O (stereo not given)
inactive: dose: 25.0 mg/kg/injection, schedule: Q04DX003 (ip), vehicle: saline 98 % of control | dose: 50.0 mg/kg/injection, schedule: Q04DX003 (ip), vehicle: saline 102 % of control | [10] 102 % of control

c1ccc2c(c1)ccc1cc3c4ccccc4c4ccccc4c3cc12
inactive: [11] 97 % of control | dose: 200.0 mg/kg/injection, schedule: Q01DX001 (ip), vehicle: carboxymethylcellulose (CMC) 90 % of control | [12] 106 % of control

CCCCCCCCCCCCC1CC(=O)OC1=O (stereo not given)
inactive: [3] 97 % of control | [4] 93 % of control | [5] 95 % of control | [6] 91 % of control

CCCC1(CC)CNC(=O)NC1=O (stereo not given)
inactive: [1] 97 % of control | [2] 92 % of control

CSc1ncnc2c1N=CNN2
inactive: [11] 94 % of control | [13] 95 % of control

C(=N\c1nncs1)/Nc1nncs1
inactive: dose: 40.0 mg/kg/injection, schedule: Q01DX015 (ip), vehicle: carboxymethylcellulose (CMC) 114 % of control and 118 % of control | [11] 102 % of control | dose: 60.0 mg/kg/injection, schedule: Q01DX015 (ip), vehicle: carboxymethylcellulose (CMC) 94 % of control | dose: 90.0 mg/kg/injection, schedule: Q01DX015 (ip), vehicle: carboxymethylcellulose (CMC) 118 % of control | [13] 98 % of control | dose: 135.0 mg/kg/injection, schedule: Q01DX015 (ip), vehicle: carboxymethylcellulose (CMC) 88 % of control | [12] 124 % of control

Nc1cc(Cl)c2ncn(C3OC(CO)C(O)C3O)c2n1 (stereo not given)
inactive: [7] 98 % of control | dose: 100.0 mg/kg/injection, schedule: Q01DX005 (ip), vehicle: saline 110 % of control | [8] 101 % of control | dose: 200.0 mg/kg/injection, schedule: Q01DX005 (ip), vehicle: saline 115 % of control | [9] 114 % of control
